Data reported in patent US7699995B2, “Water treatment method” (priority 2006, dated 2010).
Converted amounts (≈) assume the structure as drawn. Read-outs that look alike come from different tables or passages of the source.

Tests used:
[1] = Stability in buffered water at various pH and temperatures (HPLC); assay type: physicochemical
Protocol: Biocides were added to buffer solutions and stability was tested at 22° and 50° C. using HPLC to measure biocide concentration at 0 time, 21 days, 43 days, and 88-90 days. Biocide stability was determined in the following buffer solutions: pH2, 0.01M HCl; pH6, 0.1M KH2PO4; pH8, 0.025M borate; pH10, 0.025M borate; pH12, 0.05M Na2HPO4. Biocide concentrations tested were 100 ppm MI, 200 ppm BIT, 44 ppm CMI.

Alcaligenes faecalis #93 = assay: MIC at pH 7.1 or pH 9.0, half strength TSB; assay type: cell-based; conditions: three days; for MIC: Alcaligenes faecalis, 72 h, read-out: Minimum Inhibitory Concentration
Protocol: (§1) Minimum inhibitory concentration (MIC) studies were conducted to determine the lowest level of biocide required to inhibit growth of bacteria and fungi. Tests were conducted in 96-well microtiter plates. Biocides were added to growth media in the plates and serially diluted to obtain a range of concentrations. Tests were conducted in one-half strength trypticase soy broth (TSB; adjusted to pH 7.1 or pH 9.0). Bacteria and fungi were added to samples at 10^6 colony forming units per ml and incubated at 30° C. for three days. MIC values were determined visually on a growth no-growth basis.

[2] = test system: Alcaligenes xylosoxydans #95; assay: MIC at pH 7.1 or pH 9.0, half strength TSB; assay type: cell-based; conditions: three days; for MIC: Achromobacter xylosoxidans, 72 h, read-out: Minimum Inhibitory Concentration
Protocol: as §1

Aspergillus niger #128 = assay: MIC at pH 7.1 or pH 9.0, half strength TSB; assay type: cell-based; conditions: three days; for MIC: Aspergillus niger, 72 h, read-out: Minimum Inhibitory Concentration
Protocol: as §1

Aspergillus sp. #120 = assay: MIC at pH 7.1 or pH 9.0, half strength TSB; assay type: cell-based; conditions: three days; for MIC: Aspergillus, 72 h, read-out: Minimum Inhibitory Concentration
Protocol: as §1

[3] = test system: Pseudomonas aeruginosa #13; assay: MIC at pH 7.1 or pH 9.0, half strength TSB; assay type: cell-based; conditions: three days; for MIC: Pseudomonas aeruginosa, 72 h, read-out: Minimum Inhibitory Concentration
Protocol: as §1

Pseudomonas diminuta #99 = assay: MIC at pH 7.1 or pH 9.0, half strength TSB; assay type: cell-based; conditions: three days; for MIC: Brevundimonas diminuta, 72 h, read-out: Minimum Inhibitory Concentration
Protocol: as §1

[4] = test system: Pseudomonas pseudoalcaligenes #15; assay: MIC at pH 7.1 or pH 9.0, half strength TSB; assay type: cell-based; conditions: three days; for MIC: Ectopseudomonas oleovorans, 72 h, read-out: Minimum Inhibitory Concentration
Protocol: as §1

Rhodotorula rubra #156 = assay: MIC at pH 7.1 or pH 9.0, half strength TSB; assay type: cell-based; conditions: three days; for MIC: Rhodotorula, 72 h, read-out: Minimum Inhibitory Concentration
Protocol: as §1

Streptomyces sp. #130 = assay: MIC at pH 7.1 or pH 9.0, half strength TSB; assay type: cell-based; conditions: three days; for MIC: Streptomyces, 72 h, read-out: Minimum Inhibitory Concentration
Protocol: as §1

[5] = test system: Mycobacterium chelonae (ATCC 14472); assay: High resolution MIC test, pure culture, 1/10x TSB; assay type: cell-based; conditions: M. chelonae, 24 hours at 37° C.
Protocol: (§2) The lowest concentration of microbicide required to inhibit bacteria was determined by a high resolution MIC test. Varying amounts of each microbicide were added to media in a 96-well microtiter plate. The media used for the MIC tests was 10% Trypicase Soy Broth ( 1/10× TSB). […] serial dilutions were performed on a Biomek 2000 Workstation to obtain a range of closely spaced concentrations of microbicides. A cell suspension of stationary phase microorganisms, adjusted to provide 10^6 colony forming units (CFU)/mL in each well for bacteria was added to the microtiter plate. The microtiter plates were incubated for 24 hours at 30° C. for Mycobacterium immunogenum and 37° C. for Mycobacterium chelonae. The presence or absence of microbial growth was determined by measuring the turbidity in each well using a Thermomax microplate reader set at an absorbance of 650 nm. The lowest concentration of compound in which no growth was observed was considered the MIC value for the microbicide. The MIC value for each microbicide was determined from the average of four determinations for bacteria.
(§3) Bacterial strains tested included Mycobacterium chelonae (ATCC 14472) and Mycobacterium immunogenum (ATCC 700505). Mycobacterial cultures were grown overnight at 30° C. (M. immunogenum) or 37° C. (M. chelonae), in a rotary shaking bath in Middlebrook […] with Middlebrook enrichment. A 1:20 dilution of the overnight culture was made into the appropriate test media and inoculated to give a final concentration of 10^6 to 10^7 CFU/ml.

[6] = test system: Mycobacterium immunogenum (ATCC 700505); assay: High resolution MIC test, pure culture, 1/10x TSB; assay type: cell-based; conditions: M. immunogenum, 24 hours at 30° C.
Protocol: as §2, §3

## Cn1sccc1=O [MI, 2-methyl-4-isothiazolin-3-one]
[1]; 22° C., day 0
  Percent Remaining at: pH 2: 100%
  Percent Remaining at: pH 6: 100%
  Percent Remaining at: pH 8: 100%
  Percent Remaining at: pH 10: 100%
  Percent Remaining at: pH 12: 100%
[1]; 22° C., day 21
  Percent Remaining at: pH 2: 104%
  Percent Remaining at: pH 6: 100%
  Percent Remaining at: pH 8: 100%
  Percent Remaining at: pH 10: 100%
  Percent Remaining at: pH 12: 98%
[1]; 22° C., day 43
  Percent Remaining at: pH 2: 98%
  Percent Remaining at: pH 6: 94%
  Percent Remaining at: pH 8: 95%
  Percent Remaining at: pH 10: 89%
  Percent Remaining at: pH 12: 93%
[1]; 22° C., day 88
  Percent Remaining at: pH 2: 100%
  Percent Remaining at: pH 6: 100%
  Percent Remaining at: pH 8: 100%
  Percent Remaining at: pH 10: 100%
  Percent Remaining at: pH 12: 100%
[1]; 50° C., day 0
  Percent Remaining at: pH 2: 100%
  Percent Remaining at: pH 6: 100%
  Percent Remaining at: pH 8: 100%
  Percent Remaining at: pH 10: 100%
  Percent Remaining at: pH 12: 100%
[1]; 50° C., day 21
  Percent Remaining at: pH 2: 100%
  Percent Remaining at: pH 6: 98%
  Percent Remaining at: pH 8: 100%
  Percent Remaining at: pH 10: 98%
  Percent Remaining at: pH 12: 90%
[1]; 50° C., day 43
  Percent Remaining at: pH 2: 97%
  Percent Remaining at: pH 6: 93%
  Percent Remaining at: pH 8: 95%
  Percent Remaining at: pH 10: 93%
  Percent Remaining at: pH 12: 78%
[1]; 50° C., day 90
  Percent Remaining at: pH 2: 100%
  Percent Remaining at: pH 6: 100%
  Percent Remaining at: pH 8: 100%
  Percent Remaining at: pH 10: 100%
  Percent Remaining at: pH 12: 76%
Alcaligenes faecalis #93; pH 7.1, 30° C.
  MIC: 3.2 µg/mL (≈ 27.8 µM)
Alcaligenes faecalis #93; pH 9.0, 30° C.
  MIC: 6.3 µg/mL (≈ 54.7 µM)
[2]; pH 7.1, 30° C.
  MIC: 12.5 µg/mL (≈ 109 µM)
[2]; pH 9.0, 30° C.
  MIC: 25 µg/mL (≈ 217 µM)
Aspergillus niger #128; pH 7.1, 30° C.
  MIC: 100 µg/mL (≈ 868 µM)
Aspergillus niger #128; pH 9.0, 30° C.
  MIC: 100 µg/mL (≈ 868 µM)
Aspergillus sp. #120; pH 7.1, 30° C.
  MIC: 50 µg/mL (≈ 434 µM)
Aspergillus sp. #120; pH 9.0, 30° C.
  MIC: 50 µg/mL (≈ 434 µM)
[3]; pH 7.1, 30° C.
  MIC: 12.5 µg/mL (≈ 109 µM)
[3]; pH 9.0, 30° C.
  MIC: 6.3 µg/mL (≈ 54.7 µM)
Pseudomonas diminuta #99; pH 7.1, 30° C.
  MIC: 12.5 µg/mL (≈ 109 µM)
Pseudomonas diminuta #99; pH 9.0, 30° C.
  MIC: 6.3 µg/mL (≈ 54.7 µM)
[4]; pH 7.1, 30° C.
  MIC: 25 µg/mL (≈ 217 µM)
[4]; pH 9.0, 30° C.
  MIC: 25 µg/mL (≈ 217 µM)
Rhodotorula rubra #156; pH 7.1, 30° C.
  MIC: 25 µg/mL (≈ 217 µM)
Rhodotorula rubra #156; pH 9.0, 30° C.
  MIC: 25 µg/mL (≈ 217 µM)
Streptomyces sp. #130; pH 7.1, 30° C.
  MIC: 3.2 µg/mL (≈ 27.8 µM)
Streptomyces sp. #130; pH 9.0, 30° C.
  MIC: 3.2 µg/mL (≈ 27.8 µM)
[5]
  Minimum Inhibitory Concentration: 15 ppm active
[6]
  Minimum Inhibitory Concentration: 50 ppm active

## O=c1[nH]sc2ccccc12 [BIT, 1,2-benzisothiazolin-3-one, reference compound]
[1]; 22° C., day 0
  Percent Remaining at: pH 2: 100%
  Percent Remaining at: pH 6: 100%
  Percent Remaining at: pH 8: 100%
  Percent Remaining at: pH 10: 100%
  Percent Remaining at: pH 12: 100%
[1]; 22° C., day 21
  Percent Remaining at: pH 2: 97%
  Percent Remaining at: pH 6: 100%
  Percent Remaining at: pH 8: 98%
  Percent Remaining at: pH 10: 100%
  Percent Remaining at: pH 12: 69%
[1]; 22° C., day 43
  Percent Remaining at: pH 2: 83%
  Percent Remaining at: pH 6: 86%
  Percent Remaining at: pH 8: 77%
  Percent Remaining at: pH 10: 85%
  Percent Remaining at: pH 12: 55%
[1]; 22° C., day 88
  Percent Remaining at: pH 2: 95%
  Percent Remaining at: pH 6: 100%
  Percent Remaining at: pH 8: 84%
  Percent Remaining at: pH 10: 96%
  Percent Remaining at: pH 12: 63%
[1]; 50° C., day 0
  Percent Remaining at: pH 2: 100%
  Percent Remaining at: pH 6: 100%
  Percent Remaining at: pH 8: 100%
  Percent Remaining at: pH 10: 100%
  Percent Remaining at: pH 12: 100%
[1]; 50° C., day 21
  Percent Remaining at: pH 2: 95%
  Percent Remaining at: pH 6: 100%
  Percent Remaining at: pH 8: 94%
  Percent Remaining at: pH 10: 100%
  Percent Remaining at: pH 12: 68%
[1]; 50° C., day 43
  Percent Remaining at: pH 2: 80%
  Percent Remaining at: pH 6: 88%
  Percent Remaining at: pH 8: 73%
  Percent Remaining at: pH 10: 81%
  Percent Remaining at: pH 12: 55%
[1]; 50° C., day 90
  Percent Remaining at: pH 2: 93%
  Percent Remaining at: pH 6: 100%
  Percent Remaining at: pH 8: 89%
  Percent Remaining at: pH 10: 95%
  Percent Remaining at: pH 12: 68%
Alcaligenes faecalis #93; pH 7.1, 30° C.
  Minimum Inhibitory Concentration: <1.6 ppm
Alcaligenes faecalis #93; pH 9.0, 30° C.
  Minimum Inhibitory Concentration: 6.3 ppm
[2]; pH 7.1, 30° C.
  Minimum Inhibitory Concentration: 6.3 ppm
[2]; pH 9.0, 30° C.
  Minimum Inhibitory Concentration: 25 ppm
Aspergillus niger #128; pH 7.1, 30° C.
  Minimum Inhibitory Concentration: 50 ppm
Aspergillus niger #128; pH 9.0, 30° C.
  Minimum Inhibitory Concentration: 200 ppm
Aspergillus sp. #120; pH 7.1, 30° C.
  Minimum Inhibitory Concentration: 50 ppm
Aspergillus sp. #120; pH 9.0, 30° C.
  Minimum Inhibitory Concentration: 400 ppm
[3]; pH 7.1, 30° C.
  Minimum Inhibitory Concentration: 50 ppm
[3]; pH 9.0, 30° C.
  Minimum Inhibitory Concentration: 200 ppm
Pseudomonas diminuta #99; pH 7.1, 30° C.
  Minimum Inhibitory Concentration: 3.2 ppm
Pseudomonas diminuta #99; pH 9.0, 30° C.
  Minimum Inhibitory Concentration: 12.5 ppm
[4]; pH 7.1, 30° C.
  Minimum Inhibitory Concentration: 12.5 ppm
[4]; pH 9.0, 30° C.
  Minimum Inhibitory Concentration: 25 ppm
Rhodotorula rubra #156; pH 7.1, 30° C.
  Minimum Inhibitory Concentration: <6.3 ppm
Rhodotorula rubra #156; pH 9.0, 30° C.
  Minimum Inhibitory Concentration: 100 ppm
Streptomyces sp. #130; pH 7.1, 30° C.
  Minimum Inhibitory Concentration: <1.6 ppm
Streptomyces sp. #130; pH 9.0, 30° C.
  Minimum Inhibitory Concentration: 3.2 ppm
[5]
  Minimum Inhibitory Concentration: 63 ppm active
[6]
  Minimum Inhibitory Concentration: 113 ppm active
